Laboratory results taken from patent publication US11708344B2, “Flavone derivatives for the treatment and prophylaxis of hepatitis B virus disease” (Hoffmann-La Roche Inc., priority 2018, dated 2023).
pIC50: −log10 of the molar value. Read-outs that look alike come from different tables or passages of the source.

Key:
[1] = Human microsome stability assay; format: in vitro ADME; details: human liver microsomes, 1 μM test compound, 0.5 mg/mL microsomal protein, 37° C., pH 7.4, 0-30 minutes
Outline: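 Parent compound remaining was measured by LC-MS/MS at 0, 3, 6, 9, 15 and 30 min, following ACN quench. Reactions held 1 μM compound and 0.5 mg/mL human liver microsomal protein in pH 7.4 phosphate buffer at 37 °C, started by NADPH regeneration (1 mM NADP, 1 mM MgCl2); controls lacked NADPH.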

[2] = test system: HBeAg (surrogate marker for cccDNA) in HepDES19 cells; experiment: Engineered HepDES19 primary screen assay (HBeAg ELISA); format: cell-based, HBV; details: Hepatitis B virus, HepDES19, 120 h, read-out: IC50 (HBeAg level, HepDES19 primary screen assay), HepDES19 cells, 5 days compound incubation, HBeAg ELISA
Outline: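 IC50 values come from 4-parameter logistic fits of HBeAg ELISA signal, the cccDNA surrogate, with CCK-8 run in parallel for viability. Compounds at half-log dilutions with 1% DMSO were applied for 5 days at 37 °C to HepDES19 cells previously cultured 8 days without Tet.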

[3] = test system: HBsAg in HBV-infected PHH; experiment: Cryopreserved primary human hepatocytes (PHH) HBV infection assay, extracellular HBsAg (CLIA); format: cell-based
Outline: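 Cryopreserved PHH were infected with 5.8×10^6 HBV genome equivalents in medium with 4% PEG8000 and 1% DMSO. After 9 days of treatment, extracellular HBsAg was measured by CLIA, and IC50 was derived from a 4-parameter logistic fit.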

[4] = Hepatitis B virus, Hepatocyte, 216 h, read-out: HBsAg IC50, Cryopreserved PHH infected with HBV, 9 days post-compound treatment, extracellular HBsAg

Structure (SMILES) | Clearance of Human microsome [1] | pIC50 [2] | pIC50 [3, 4] | pIC50 ([3]; read-out: HBsAg IC50, Cryopreserved PHH infected with HBV, 9 days post-compound treatment, extracellular HBsAg)
COc1cc(-c2cc(=O)c3cccc(Cl)c3o2)c(OCCO[C@H]2C[C@@H](C(=O)O)C2)cc1OC(F)F [Example C081, Cis-3-[2-[2-(8-chloro-4-oxo-chromen-2-yl)-5-(difluoromethoxy)-4-methoxy-phenoxy]ethoxy]cyclobutanecarboxylic acid] | 6.15 mL/min/kg | 6.11 | 5.06 | –
O=c1cc(-c2ccc(F)cc2OCCO[C@H]2C[C@H](C(=O)O)C2)oc2c(Cl)cccc12 [Example C034-B, Trans-3-[2-[2-(8-chloro-4-oxo-chromen-2-yl)-5-fluoro-phenoxy]ethoxy]cyclobutanecarboxylic acid] | 6.75 mL/min/kg | 5.74 | 5.04 | –
Cc1ccc(-c2cc(=O)c3cccc(Br)c3o2)c(OCCCOCC(=O)O)c1 [Example C017, 2-[3-[2-(8-bromo-4-oxo-chromen-2-yl)-5-methyl-phenoxy]propoxy]acetic acid] | 6.15 mL/min/kg | 6.31 | 5.53 | –
O=C1CCCN1c1ccc(-c2cc(=O)c3cccc(Cl)c3o2)c(OCCO[C@H]2C[C@@H](C(=O)O)C2)c1 [Example C063-A, Cis-3-[2-[2-(8-chloro-4-oxo-chromen-2-yl)-5-(2-oxopyrrolidin-1-yl)phenoxy]ethoxy]cyclobutanecarboxylic acid] | 9.09 mL/min/kg | 5.31 | 5.18 | –
O=c1cc(-c2ccccc2O[C@H]2C[C@@H](C(=O)O)C2)oc2c(Br)cccc12 [Example B022-A, Cis-3-[2-(8-bromo-4-oxo-chromen-2-yl)phenoxy]cyclobutanecarboxylic acid] | 6.15 mL/min/kg | 6.95 | 5.42 | –
CC(CC(=O)O)Oc1cc(C(F)(F)F)ccc1-c1cc(=O)c2cccc(Cl)c2o1 (stereo not drawn) [Example A039, 3-[2-(8-chloro-4-oxo-chromen-2-yl)-5-(trifluoromethyl)phenoxy]butanoic acid] | 6.37 mL/min/kg | 6.85 | 5.15 | –
Cc1cc(-c2cc(=O)c3cccc(Cl)c3o2)c(O[C@H]2C[C@@H](C(=O)O)C2)cc1Cl [Example B012-A, Cis-3-[5-chloro-2-(8-chloro-4-oxo-chromen-2-yl)-4-methyl-phenoxy]cyclobutanecarboxylic acid] | 6.15 mL/min/kg | 5.49 | – | 5.22
